Reference: patent US20020059032A1, “Rational selection of putative peptides from identified nucleotide or peptide sequences” (priority 1999, published 2002)
Where a SMILES comes first, the peptide text is derived from it.

Biological target: guinea pig brain membranes
Experiment: Binding test with guinea pig brain membranes
Details: tested on guinea pig brain membranes; read-out: IC50 = 100 μM
Method: Binding Assay Alternative Protocol by Skatron
The experimental conditions are identical for all the binding assay protocols except for the fact that: i) the volume R in operation is 200 μl; ii) the test carried out in 96-well Falcon plates iii) the reaction is directly stopped by filtration on filterMat (ref. 11734) Skatron and the radioactivity associated with the filtrate is evaluated: either directly with a γ counter for the peptides labelled with […]: or with a […] in the presence of 5 ml of scintillating liquid.
Membrane Preparations of Guinea Pig Brains and Binding Assay
The guinea pigs are sacrificed by rupturing their cervical vertibrae, decapitated, and the brains are removed very rapidly and placed into a sucrose-Tris-HCl buffer (0.32 M sucrose 5 mM, Tris-HCl, 0.1 g/l bacitracin) at 4° C. (about 10 ml of buffer per brain). The brains are then homogenized using a Potter device and the homogenate is placed in incubation for 30 minutes at 37° C. under agitation, then centrifuged twice for 35 minutes at 100,000×g at 4° C. The protein content of the membrane preparations is evaluated according to the Bradford method (BioRad, according to the manufacturers protocol).
Bonding of Labelled Agonists to the Guinea Pig Brain Membrane Preparation The membranes are placed in a buffer (50 mM of Tris-HCl, 5 mM of MgCl2 and 0.1 g/l of bacitracin) at the desired protein concentration (iodized CCK bond, 0.1 mg of protein/ml; iodized gastrin bond: 0.5 mg of proteins/ml). They are then incubated in the presence of a labelled ligand in a total volume of 500 μl (about 10 pM for the iodized CCK8, 20 pM for the iodized gastrin13), 50-80 minutes at 25° C., and in the presence or absence of cold agonists. The reaction is stopped with 3 ml of additional BSA buffer (20 g/l) at 4° C., the tubes are centrifuged at 10,000×g, the supernatant is drawn off and the radioactivity associated with the precipitate is evaluated with a γ counter.

Structure (SMILES) | IC50
CC(C)C[C@H](NC(=O)[C@H](CC(C)C)NC(=O)[C@@H](N)CO)C(=O)N[C@@H](CO)C(=O)N[C@@H](CCCCN)C(=O)N[C@H](C(=O)N[C@@H](CO)C(=O)N[C@@H](CCC(N)=O)C(N)=O)C(C)C [Example 7, H-SLLSKVSQ-NH2] (H-SLLSKVSQ-NH2) | 430 nM
CC(C)C[C@H](NC(=O)[C@H](C)NC(=O)[C@H](CCCCN)NC(=O)CNC(=O)[C@@H]1CCCN1C(=O)[C@@H](NC(=O)[C@H](C)NC(=O)CN)[C@@H](C)O)C(=O)N[C@H](C(=O)N[C@@H](C)C(=O)N[C@H](C(=O)N1CCC[C@H]1C(N)=O)[C@@H](C)O)C(C)C [Example 39, H-GATPGKALVATP-NH2] (H-GATPGKALVATP-NH2) | 400 nM
CSCC[C@H](NC(=O)[C@H](C)NC(=O)[C@@H](NC(=O)[C@@H](N)CCC(=O)O)C(C)C)C(=O)N[C@@H](CC(=O)O)C(=O)N[C@@H](CC(=O)O)C(=O)N[C@@H](Cc1c[nH]cn1)C(=O)N[C@@H](CCCCN)C(=O)N[C@@H](CC(C)C)C(=O)N[C@@H](CO)C(=O)N[C@@H](CC(C)C)C(=O)N[C@@H](CC(=O)O)C(=O)N[C@@H](CCC(=O)O)C(=O)N[C@@H](CC(C)C)C(N)=O [Example 58, H-EVAMDDHKLSLDEL-NH2] (H-EVAMDDHKLSLDEL-NH2) | 860 nM
CSCC[C@H](NC(=O)[C@H](CCC(N)=O)NC(=O)[C@H](CCC(=O)O)NC(=O)[C@H](CCSC)NC(=O)[C@H](CC(C)C)NC(=O)[C@@H]1CCCN1C(=O)CNC(=O)[C@@H]1CCCN1C(=O)[C@@H]1CCCN1C(=O)CNC(=O)CNC(=O)[C@@H]1CCCN1C(=O)CNC(=O)CN)C(=O)NCC(N)=O [Example 36, H-GGPGGPPGPLMEQMG-NH2] (H-GGPGGPPGPLMEQMG-NH2) | 2900 nM
CC(C)[C@H](NC(=O)[C@H](C)NC(=O)[C@H](CCCCN)NC(=O)[C@H](C)NC(=O)[C@@H]1CCCN1C(=O)[C@@H](NC(=O)[C@@H](NC(=O)[C@@H](N)[C@@H](C)O)C(C)C)[C@@H](C)O)C(=O)N[C@H](C(=O)N[C@H](C(=O)N1CCC[C@H]1C(N)=O)[C@@H](C)O)[C@@H](C)O [Example 59, H-TVTPAKAVTTP-NH2] (H-TVTPAKAVTTP-NH2) | 410 nM
CC[C@H](C)[C@H](NC(=O)[C@H](CO)NC(=O)[C@H](Cc1ccccc1)NC(=O)[C@@H]1CCCN1C(=O)[C@@H](NC(=O)[C@H](Cc1ccccc1)NC(=O)[C@H](C)NC(=O)[C@H](CC(=O)O)NC(=O)[C@@H](N)CO)C(C)C)C(N)=O [Example 22, H-SDAFVPFSI-NH2] (H-SDAFVPFSI-NH2) | 2800 nM
CC[C@H](C)[C@H](NC(=O)CNC(=O)[C@H](CCCCN)NC(=O)[C@H](CO)NC(=O)[C@H](Cc1ccc(O)cc1)NC(=O)[C@@H](N)CC(=O)O)C(=O)N[C@H](C(=O)N[C@H](C(=O)N[C@H](C(=O)N[C@@H](CCCCN)C(=O)N[C@@H](CC(N)=O)C(=O)N[C@@H](CC(=O)O)C(N)=O)[C@@H](C)O)C(C)C)[C@@H](C)O [Example 62, H-DYSKGITVTKND-NH2] (H-DYSKGITVTKND-NH2) | 670 nM
CC(C)C[C@H](NC(=O)[C@H](C)NC(=O)[C@H](CCC(=O)O)NC(=O)[C@H](CCC(N)=O)NC(=O)[C@@H](N)CC(C)C)C(=O)N[C@@H](CO)C(=O)N[C@@H](CCCCN)C(=O)N[C@@H](C)C(=O)N[C@@H](C)C(N)=O [Example 50, H-LQEALSKAA-NH2] (H-LQEALSKAA-NH2) | 1000 nM
CC[C@H](C)[C@H](NC(=O)[C@H](Cc1ccccc1)NC(=O)[C@H](CCC(=O)O)NC(=O)[C@@H]1CCCN1C(=O)[C@H](Cc1ccc(O)cc1)NC(=O)[C@H](Cc1c[nH]cn1)NC(=O)[C@H](CCC(=O)O)NC(=O)[C@@H](NC(=O)[C@@H](N)CC(C)C)C(C)C)C(N)=O [Example 45, H-LVEHYPEFI-NH2] (H-LVEHYPEFI-NH2) | 700 nM

The next molecules have a lower IC50 than those just listed; values first:

IC50 | Structure (SMILES)
300 nM | CC[C@H](C)[C@H](NC(=O)[C@H](CCCCN)NC(=O)[C@@H](NC(=O)[C@H](CC(C)C)NC(=O)[C@@H](NC(=O)CNC(=O)[C@@H](N)CO)[C@@H](C)O)[C@@H](C)CC)C(=O)N[C@@H](Cc1ccccc1)C(=O)N[C@@H](CCC(N)=O)C(=O)N[C@@H](C)C(=O)N[C@@H](CO)C(N)=O [Example 47, H-SGTLIKIFQAS-NH2] (H-SGTLIKIFQAS-NH2)
300 nM | CC(C)C[C@H](NC(=O)[C@@H](N)CCC(N)=O)C(=O)N[C@@H](Cc1c[nH]c2ccccc12)C(=O)N[C@@H](CC(=O)O)C(=O)N[C@H](C(=O)N[C@@H](C)C(=O)N[C@@H](Cc1c[nH]cn1)C(=O)N[C@@H](CO)C(=O)N[C@H](C(=O)N[C@@H](CCCCN)C(=O)N[C@@H](CCC(=O)O)C(=O)N[C@@H](CCCCN)C(=O)N[C@@H](Cc1ccccc1)C(N)=O)C(C)C)C(C)C [Example 54, H-QLWDVAHSVKEKF-NH2] (H-QLWDVAHSVKEKF-NH2)
270 nM | CC(C)C[C@H](NC(=O)[C@H](CO)NC(=O)[C@@H]1CCCN1C(=O)[C@@H](N)CC(=O)O)C(=O)N1CCC[C@H]1C(=O)N[C@H](C(=O)N[C@@H](C)C(=O)N[C@@H](CO)C(=O)N[C@@H](CO)C(=O)N[C@@H](CO)C(=O)N[C@@H](CO)C(=O)N[C@@H](CO)C(=O)N[C@@H](CO)C(=O)N[C@@H](CO)C(=O)N[C@@H](CCCCN)C(=O)N[C@@H](CCCNC(=N)N)C(N)=O)C(C)C [Example 11, H-DPSLPVASSSSSSSKR-NH2] (H-DPSLPVASSSSSSSKR-NH2)
250 nM | CC(C)C[C@H](NC(=O)[C@H](CCCCN)NC(=O)[C@H](CO)NC(=O)[C@@H](N)CCC(=O)O)C(=O)N[C@@H](CCC(=O)O)C(=O)N[C@@H](CCCNC(=N)N)C(=O)N[C@H](C(=O)N1CCC[C@H]1C(=O)N[C@@H](CCC(N)=O)C(=O)N[C@@H](CCCCN)C(=O)N[C@@H](CC(N)=O)C(=O)N[C@H](C(=O)N[C@@H](CCC(N)=O)C(N)=O)C(C)C)[C@@H](C)O [Example 41, H-ESKLERTPQKNVQ-NH2] (H-ESKLERTPQKNVQ-NH2)
160 nM | CSCC[C@H](NC(=O)[C@H](Cc1ccccc1)NC(=O)[C@H](Cc1ccc(O)cc1)NC(=O)[C@H](CC(N)=O)NC(=O)[C@@H](N)CO)C(=O)N1CCC[C@H]1C(=O)N[C@@H](Cc1ccccc1)C(=O)N[C@@H](CO)C(=O)N[C@@H](C)C(N)=O [Example 21, H-SNYFMPFSA-NH2] (H-SNYFMPFSA-NH2)
140 nM | CC(C)[C@H](NC(=O)[C@H](C)NC(=O)[C@@H](NC(=O)[C@H](Cc1c[nH]c2ccccc12)NC(=O)[C@@H]1CCCN1)[C@@H](C)O)C(=O)N[C@@H](CC(=O)O)C(=O)N[C@H](C(=O)N[C@@H](CO)C(=O)N[C@H](C(=O)N[C@@H](CC(=O)O)C(N)=O)C(C)C)[C@@H](C)O [Example 51, H-PWTAVDTSVD-NH2] (H-PWTAVDTSVD-NH2)
130 nM | CC[C@H](C)[C@H](NC(=O)[C@H](Cc1ccccc1)NC(=O)[C@H](C)NC(=O)[C@H](CCSC)NC(=O)[C@@H](NC(=O)[C@H](CCC(=O)O)NC(=O)[C@@H]1CCCN1C(=O)CNC(=O)[C@H](CCCCN)NC(=O)[C@@H](N)CCSC)C(C)C)C(=O)N[C@@H](CCC(=O)O)C(=O)N[C@@H](CCC(N)=O)C(N)=O [Example 40, H-MKGPEVMAFIEQ-NH2] (H-MKGPEVMAFIEQ-NH2)
100 nM | CSCC[C@H](NC(=O)[C@H](CCCNC(=N)N)NC(=O)[C@@H](N)CCC(=O)O)C(=O)NCC(=O)N[C@@H](Cc1c[nH]cn1)C(=O)N[C@@H](Cc1c[nH]cn1)C(=O)N[C@@H](CC(=O)O)C(=O)N[C@@H](CC(=O)O)C(=O)N[C@@H](Cc1ccc(O)cc1)C(=O)N[C@@H](Cc1ccc(O)cc1)C(=O)N[C@@H](CO)C(=O)N[C@@H](CCCNC(=N)N)C(=O)N[C@@H](CC(C)C)C(=O)N[C@@H](CCCNC(=N)N)C(N)=O [Example 44, H-ERMGHHDDYYSRLR-NH2] (H-ERMGHHDDYYSRLR-NH2)
90 nM | CSCC[C@H](NC(=O)[C@H](CCC(N)=O)NC(=O)[C@H](Cc1ccccc1)NC(=O)CNC(=O)[C@H](CO)NC(=O)[C@@H](N)CC(=O)O)C(=O)N[C@@H](CC(N)=O)C(=O)N[C@@H](CCC(N)=O)C(=O)N[C@@H](CC(C)C)C(=O)N[C@@H](CCCNC(=N)N)C(N)=O [Example 13, H-DSGFQMNQLR-NH2] (H-DSGFQMNQLR-NH2)
30 nM | CSCC[C@H](N)C(=O)N[C@@H](CC(=O)O)C(=O)N[C@H](C(=O)NCC(=O)NCC(=O)N[C@@H](CC(C)C)C(=O)N[C@@H](CO)C(=O)N[C@@H](CC(=O)O)C(=O)N1CCC[C@H]1C(=O)N[C@@H](Cc1ccc(O)cc1)C(=O)N[C@H](C(=O)N[C@@H](CCCCN)C(=O)N[C@H](C(=O)N[C@@H](Cc1c[nH]cn1)C(=O)N[C@@H](CC(C)C)C(=O)N[C@@H](CC(C)C)C(=O)N[C@@H](CCC(N)=O)C(=O)NCC(N)=O)C(C)C)C(C)C)C(C)C [Example 10, H-MDVGGLSDPYVKVHLLQG-NH2] (H-MDVGGLSDPYVKVHLLQG-NH2)
10 nM | CC(C)C[C@H](NC(=O)[C@@H]1CCCN1C(=O)[C@H](CC(C)C)NC(=O)[C@H](CCC(N)=O)NC(=O)[C@@H](N)Cc1ccccc1)C(=O)N[C@@H](CC(=O)O)C(=O)N[C@@H](CCCCN)C(=O)NCC(=O)N[C@@H](CC(N)=O)C(N)=O [Example 29, H-FQLPLDKGN-NH2] (H-FQLPLDKGN-NH2)
